This is an account of results in patent US20040247699A1, “Method for the prevention or treatment of overweight in mammals” (priority 2002, published 2004).

The nature of this data set: Effects on physical activity (ambulatory counts). Conditions: 12.5 mg caffeine per kg rat oral, period when rats are normally asleep.

Description: In the study as described in example 1, the physical activity of the animals was determined by monitoring ambulatory counts.
The effects of caffeine on physical activity was tested in rats and compared to placebo (water). In a placebo controlled cross-over design as described in example 1, the effects of administration of either 12.5 mg caffeine per kg of rat or water on physical activity was determined. Physical activity of the animals was determined by monitoring ambulatory counts.
Results are shown as the average ambulatory counts per 26 minutes.

For the molecule `Cn1c(=O)c2c(ncn2C)n(C)c1=O` [caffeine], the “ambulatory counts per 26 minutes compared to placebo” value is reported as “ambulatory counts increase”.
